# Measurements taken from paper PMC3545969, “Mutagenicity and antimutagenicity of (−)-hinokinin a trypanosomicidal compound measured by Salmonella microsome and comet assays” (BMC Complementary and Alternative Medicine, 2012).
# Where two headings read alike, the source gives them in different places. Marks after values point to notes of the source that are not given here.
# How the values were obtained:
# [1] = test system: Chinese hamster lung fibroblast V79 cells; parameters: method as in PMID 20452459; settings: cited from earlier work
# [2] = test system: V79 cells; assay: Comet assay, genotoxicity in V79 cells; format: cell-based, Chinese hamster; parameters: Class 0 / Class 1 / Class 2 / Class 3: unit not given here; settings: 3 h
# Protocol: Chinese hamster lung fibroblasts (V79) were kindly supplied by Professor Cólus (Universidade Estadual de Londrina (UEL), Paraná, Brazil). Cells were maintained as monolayers in plastic culture flasks (25 cm^2) in HAM-F10 (Sigma-Aldrich) plus DMEM (Sigma-Aldrich, 1:1) culture medium supplemented with 10%; fetal bovine serum (Nutricell), antibiotics (0.01 mg mL^−1 streptomycin and 0.005 mg mL^−1 penicillin; Sigma-Aldrich) and 2.38 mg mL^−1 Hepes (Sigma-Aldrich), at 37°C in a BOD-type chamber. Under these conditions, the average cell cycle time was 12 h.
# HK was first dissolved in a mixture of methanol (100 μL) and distilled water (900 μL). The final concentration of methanol in the culture was 0.1%;. The choice of concentrations was based on the results of previous experiments with HK [12]. In the experiments, 3 × 10^5 cells (V79) were seeded into tissue-culture flasks, incubated for two cycles (24 h) in complete HAM-F10/DMEM medium, washed with phosphate buffer saline (PBS), and then subjected to one of the following treatments, in serum-free medium, for 3 h. To assess genotoxicity, the cells were treated with each concentration of HK alone, while for antigenotoxicity, they were treated with the mutagen DXR (0.3 μM) in combination with each HK concentration. Positive (DXR) and negative controls were also included in the test. At the end of the treatment, the cells were washed with ice-cold PBS and trypsinized with 200 μL trypsin. After 3 min, the cells were gently resuspended in complete medium and 20 μL of the cell suspension was immediately used for the test.
# The procedures described by Singh et al. were adopted, with minor modifications, as described in detail by Speit and Hartmann and reviewed by Burlinson et al.. Briefly, a microscope slide was covered with a base layer of 1.5%; normal-melting agarose (Invitrogen) and 20 μL of the test cells suspended in 120 μL 0.5%; low-melting agarose (Invitrogen) at 37°C was then spread over the base layer. A coverslip was added and the agarose allowed to solidify at 4°C for 15 min. Next, the coverslip was gently removed and the slides were immersed in freshly prepared lysing solution consisting of 89 mL stock solution (2.5 M NaCl, 100 mM EDTA, 10 mM Tris, pH 10.0, and 1%; sodium lauryl sarcosine), 10 mL DMSO and 1 mL Triton X-100, pH 10.0, at 4°C, for at least 20 h, protected from light. At the end of this period, the slides were transferred to an electrophoresis chamber containing a high pH (>13.0) buffer (300 mM NaOH, 1 mM EDTA) and incubated at 4°C for 20 min to allow the DNA to unwind. A current of 25 V (1.0 V cm^−1, 300 mA) was applied for 20 min. The slides were then submerged in a neutralization buffer (0.4 M Tris - HCl, pH 7.5) for 15 min, dried at room temperature and fixed in 100%; ethanol for 10 min.
# The slides were stained with 100 μL ethidium bromide (20 μg ml^−1) and covered with a coverslip. All the slides in the experiment were coded before analysis. The stained nucleoids were immediately evaluated at 1000x magnification under a Nikon fluorescence microscope fitted with a 515–560 nm excitation filter and a 590 nm barrier filter.
# For each treatment, the extent and distribution of DNA damage indicated by the comet assay were evaluated by examining 100 randomly selected and non-overlapping cells on the slides (i.e. 300 nucleoids per treatment). For each slide, the cells were visually scored and allocated to one of four classes (0, 1, 2 and 3), according to tail size, as follows: class 0, undamaged, no tail; class 1, a short tail whose length was smaller than the diameter of the comet head (nucleus); class 2, tail length between 1 and 2 times the diameter of the head; and class 3, maximally damaged: a long tail measuring more than twice the diameter of the head. The few comets containing no head and those with almost all DNA in the tail, or with a very wide tail, were excluded from the analysis since they may arise from dead cells. […]
# [3] = test system: Salmonella typhimurium TA97a; settings: for % inhibition / Number of revertants(M ± SD)/ plate: TA 97a
# [4] = test system: Salmonella typhimurium TA97a; settings: TA 97a
# [5] = test system: rat peripheral blood; parameters: method as in PMID 17141387; settings: cited from earlier work
# [6] = + S9, HK 19.5 μg/plate + 2-AA 1.25 μg/plate
# [7] = + S9, HK 39.0 μg/plate + 2-AA 1.25 μg/plate
# [8] = + S9, HK 58.5 μg/plate + 2-AA 1.25 μg/plate
# [9] = + S9, HK 78.0 μg/plate + 2-AA 1.25 μg/plate
# [10] = + S9, HK […] + 2-AA 1.25 μg/plate
structure (smiles),measurement,setting,value
"O=C1OC[C@H](Cc2ccc3c(c2)OCO3)[C@H]1Cc1ccc2c(c1)OCO2 [HK, (−)-hinokinin]","genotoxic effect, micronucleus test",[1]; HK alone,no genotoxic effect
same,"effect on chromosome damage caused by MMS, micronucleus test",[1],reduced the chromosome damage caused by MMS
same,"effect on DXR-induced clastogenicity, micronucleus test",[1]; higher concentrations of HK,potentiator of DXR-induced clastogenicity
same,"effect on DXR-induced clastogenicity, micronucleus test",[1]; lower concentrations of HK,reduction in DXR-induced clastogenicity
same,Class 0,[2]; HK 0.5 μM alone,81.6 ± 4.9
same,Class 1,[2]; HK 0.5 μM alone,12.3± 3.5
same,Class 2,[2]; HK 0.5 μM alone,4.3 ± 3.7
same,Score,[2]; HK 0.5 μM alone,26.0 ± 13.2
same,Class 0,[2]; HK 1.0 μM alone,87.0 ± 5.1
same,Class 1,[2]; HK 1.0 μM alone,11.0 ± 5.2
same,Class 2,[2]; HK 1.0 μM alone,1.3 ± 0.5
same,Class 3,[2]; HK 1.0 μM alone,0
same,Score,[2]; HK 1.0 μM alone,13.0 ± 5.0
same,Class 0,[2]; HK 2.0 μM alone,83.0 ± 3.7
same,Class 1,[2]; HK 2.0 μM alone,14.0 ± 2.5
same,Class 2,[2]; HK 2.0 μM alone,2.0 ± 2.0
same,Class 3,[2]; HK 2.0 μM alone,0
same,Score,[2]; HK 2.0 μM alone,18.0 ± 5.0
same,Class 0,[2]; HK 32 μM alone,89.0 ± 2.0
same,Class 1,[2]; HK 32 μM alone,10.0 ± 2.0
same,Class 2,[2]; HK 32 μM alone,0.3 ± 0.5
same,Class 3,[2]; HK 32 μM alone,0.6 ± 1.1
same,Score,[2]; HK 32 μM alone,9.6 ± 2.3
same,Class 0,[2]; HK 64 μM alone,88.0 ± 3.6
same,Class 1,[2]; HK 64 μM alone,11.0 ± 4.0
same,Class 2,[2]; HK 64 μM alone,0.6 ± 1.0
same,Class 3,[2]; HK 64 μM alone,1.0 ± 1.0
same,Score,[2]; HK 64 μM alone,13.0 ± 3.4
same,% inhibition,[3]; [6],45*** %
same,Number of revertants(M ± SD)/ plate,[3]; [6],659 + 41 revertants/plate
same,% inhibition,[3]; [7],49*** %
same,Number of revertants(M ± SD)/ plate,[3]; [7],628 + 16 revertants/plate
same,% inhibition,[3]; [8],67*** %
same,Number of revertants(M ± SD)/ plate,[3]; [8],456 + 13 revertants/plate
same,% inhibition,[3]; [9],60*** %
same,Number of revertants(M ± SD)/ plate,[3]; [9],523 + 86 revertants/plate
same,% inhibition,[3]; [10],43*** %
same,Number of revertants(M ± SD)/ plate,[3]; [10],682 + 52 revertants/plate
same,Number of revertants(M ± SD)/ plate,"[3]; - S9, HK 19.5 μg/plate + NOPD 10.0 μg/plate",948 + 24 revertants/plate
same,Number of revertants(M ± SD)/ plate,"[3]; - S9, HK 39.0 μg/plate + NOPD 10.0 μg/plate",979 + 84 revertants/plate
same,Number of revertants(M ± SD)/ plate,"[3]; - S9, HK 58.5 μg/plate + NOPD 10.0 μg/plate",1006 + 54 revertants/plate
same,Number of revertants(M ± SD)/ plate,"[3]; - S9, HK 78.0 μg/plate + NOPD 10.0 μg/plate",1026 + 75 revertants/plate
same,Number of revertants(M ± SD)/ plate,"[3]; - S9, HK […] + NOPD 10.0 μg/plate",934 + 33 revertants/plate
same,effect on mutagenesis induced by NOPD,"[3]; TA97a, absence of metabolic activation",did not reduce mutagenesis
same,potentiation of NOPD-induced effect (revertants vs positive control alone),"[3]; strain 97a, −S9, HK + NOPD",potentiated NOPD -induced clastogenicity
same,MI (mutagenicity index),"[4]; + S9, HK 19.5 μg/plate",1.1
same,Number of revertants(M ± SD)/ plate,"[4]; + S9, HK 19.5 μg/plate",187 ± 3 revertants/plate
same,MI (mutagenicity index),"[4]; + S9, HK 39.0 μg/plate",1.0
same,Number of revertants(M ± SD)/ plate,"[4]; + S9, HK 39.0 μg/plate",166 ± 5 revertants/plate
same,MI (mutagenicity index),"[4]; + S9, HK 58.5 μg/plate",1.0
same,Number of revertants(M ± SD)/ plate,"[4]; + S9, HK 58.5 μg/plate",172 ± 2 revertants/plate
same,MI (mutagenicity index),"[4]; + S9, HK 78.0 μg/plate",0.9
same,Number of revertants(M ± SD)/ plate,"[4]; + S9, HK 78.0 μg/plate",146 ± 4 revertants/plate
same,MI (mutagenicity index),"[4]; - S9, HK 39.0 μg/plate",0.9
same,Number of revertants(M ± SD)/ plate,"[4]; - S9, HK 39.0 μg/plate",146 ± 5 revertants/plate
same,MI (mutagenicity index),"[4]; - S9, HK 58.5 μg/plate",1.1
same,Number of revertants(M ± SD)/ plate,"[4]; - S9, HK 58.5 μg/plate",175 ± 4 revertants/plate
same,MI (mutagenicity index),"[4]; - S9, HK 78.0 μg/plate",1.0
same,Number of revertants(M ± SD)/ plate,"[4]; - S9, HK 78.0 μg/plate",163 ± 8 revertants/plate
same,"effect on chromosome damage induced by DXR, micronucleus test",[5],effective in reducing the chromosome damage induced by DXR
same,"genotoxic effect, micronucleus test",[5],no genotoxic effect
